Laboratory results published in patent publication US20230407373A1 (priority 2020, published 2023).
Like-named read-outs stand apart in the source and are kept apart here.

Key:
Format in all cases: binding
HCoV-OC43 gRNA and sgRNA = conditions: for target (unweighted spectral count): OC43 Probe II, infected cells; for target (spectral count) / background (spectral count): type s_36_m, Probe II; for target (spectral count): HCoV-OC43-infected HCT-8 cells; for background (spectral count): uninfected-probe control
[1] = system: SARS-CoV-2 gRNA and sgRNAs; conditions: for target (unweighted spectral count in RNP capture): Probe II capture, LC-MS/MS LFQ; for background (unweighted spectral count in control): no-probe control pull-down, used as background for Probe II; for target (unweighted spectral count of the protein in the RNP capture experiment): LC-MS/MS label-free quantification, probe pool not given; for back-ground (unweighted spectral count of the protein in the control experiment): protein background of the control (e.g. no-probe) experiment
gRNA of HCoV-OC43 = conditions: for target (spectral count) / background (spectral count): type g_36_m, 36 hpi, Probe I; for target (spectral count): HCoV-OC43-infected HCT-8 cells; for background (spectral count): uninfected-probe control
SARS-CoV-2 gRNA = system: SARS-CoV-2 gRNA
[2] = 24 hpi (type n_24_v), tested against no-probe control
[3] = 36 hpi, type n_36_v, tested against no-probe control, FDR<10%
[4] = type n_48_v, 48 hpi, OC43 Probe II capture on infected cells
[5] = type n_48_v, 48 hpi, no-probe control on infected cells
[6] = 12 hpi (type n_12_v), tested against no-probe control
[7] = 24 hpi, type n_24_v, tested against no-probe control, FDR<10%
[8] = type n_48_v: 48 hours post-infection, infected cells, OC43 Probe I, unweighted spectral count
[9] = type n_48_v: 48 hours post-infection, no-probe control on infected cells

For KRT16, the “target (unweighted spectral count)” value (HCoV-OC43 gRNA and sgRNA; [2]) was 22.

With LARP4 the “target (unweighted spectral count, OC43 Probe II capture)” value (HCoV-OC43 gRNA and sgRNA; [3]) was 4, the “target (unweighted spectral count in RNP capture)” value [1] was 10 and the “background (unweighted spectral count in control)” value [1] was 1.

With LARP4B the “target (unweighted spectral count)” value (HCoV-OC43 gRNA and sgRNA; [2]) was 6, the “target (unweighted spectral count, OC43 Probe II)” value (HCoV-OC43 gRNA and sgRNA; [4]) was 6 and the “background (unweighted spectral count, no-probe control)” value (HCoV-OC43 gRNA and sgRNA; [5]) was 1. For the same substance, the “target (unweighted spectral count of the protein in the RNP capture experiment)” value [1] was 6 and the “back-ground (unweighted spectral count of the protein in the control experiment)” value (“back-ground” below) [1] was 1.

For LGALS3, the “target (unweighted spectral count, OC43 Probe II)” value (HCoV-OC43 gRNA and sgRNA; [4]) was 5 and the “background (unweighted spectral count, no-probe control)” value (HCoV-OC43 gRNA and sgRNA; [5]) was 1.

With LSM14A the “target (unweighted spectral count in RNP capture)” value [1] was 8 and the “background (unweighted spectral count in control)” value [1] was 1.

In the case of MPG, the “target (unweighted spectral count)” value (HCoV-OC43 gRNA and sgRNA; [6]) is reported as 4.

In the case of MYH9, the “target (unweighted spectral count, OC43 Probe II capture)” value (HCoV-OC43 gRNA and sgRNA; [7]) is reported as 6, the “target (unweighted spectral count, OC43 Probe II)” value (HCoV-OC43 gRNA and sgRNA; [4]) is reported as 9 and the “background (unweighted spectral count, no-probe control)” value (HCoV-OC43 gRNA and sgRNA; [5]) is reported as 1. The “target (unweighted spectral count of the protein in the RNP capture experiment)” value [1] was 9 and the “back-ground” value [1] was 2.

In the case of NSP8, the “background (spectral count, no-probe control)” value (gRNA of HCoV-OC43) is reported as 1 and the “target (spectral count, OC43 Probe I RNP capture)” value (gRNA of HCoV-OC43) is reported as 5.

In the case of NUMA1, the “target (unweighted spectral count)” value (HCoV-OC43 gRNA and sgRNA; [6]) is reported as 5.

For PLEC, the “target (unweighted spectral count, OC43 Probe II)” value (HCoV-OC43 gRNA and sgRNA; [4]) was 6 and the “background (unweighted spectral count, no-probe control)” value (HCoV-OC43 gRNA and sgRNA; [5]) was 1.

In the case of PPIA, the “target (unweighted spectral count, OC43 Probe II capture)” value (HCoV-OC43 gRNA and sgRNA; [3]) is reported as 13, the “target (unweighted spectral count, OC43 Probe II)” value (HCoV-OC43 gRNA and sgRNA; [4]) is reported as 12 and the “background (unweighted spectral count, no-probe control)” value (HCoV-OC43 gRNA and sgRNA; [5]) is reported as 1. The “back-ground” value [1] was 10, the “target (spectral count, OC43 Probe I RNP capture)” value (gRNA of HCoV-OC43; [8]) was 10 and the “background (spectral count, no-probe control)” value (gRNA of HCoV-OC43; [9]) was 1.

With PPP1CA the “target (unweighted spectral count, OC43 Probe II capture)” value (HCoV-OC43 gRNA and sgRNA; [3]) was 4.

In the case of PRPF8, the “target (unweighted spectral count, OC43 Probe II capture)” value (HCoV-OC43 gRNA and sgRNA; [7]) is reported as 7, the “target (unweighted spectral count, OC43 Probe II)” value (HCoV-OC43 gRNA and sgRNA; [4]) is reported as 20 and the “background (unweighted spectral count, no-probe control)” value (HCoV-OC43 gRNA and sgRNA; [5]) is reported as 5.

For PRRC2A: host protein, UniProt P48634, the “target (unweighted spectral count, OC43 Probe II capture)” value (HCoV-OC43 gRNA and sgRNA; [3]) was 10, the “target (unweighted spectral count)” value (HCoV-OC43 gRNA and sgRNA; [2]) was 8 and the “target (unweighted spectral count, OC43 Probe II)” value (HCoV-OC43 gRNA and sgRNA; [4]) was 9. The “background (unweighted spectral count, no-probe control)” value (HCoV-OC43 gRNA and sgRNA; [5]) was 1, the “target (spectral count)” value (gRNA of HCoV-OC43) was 12 and the “background (spectral count)” value (gRNA of HCoV-OC43) was 1. For the same substance, the “target (spectral count, OC43 Probe I RNP capture)” value (gRNA of HCoV-OC43; [8]) was 9 and the “background (spectral count, no-probe control)” value (gRNA of HCoV-OC43; [9]) was 1.

For RBPMS, the “target (unweighted spectral count of the protein in the RNP capture experiment)” value [1] was 5 and the “back-ground” value [1] was 1.

With RP22L1 the “target (unweighted spectral count in RNP capture)” value [1] was 7 and the “background (unweighted spectral count in control)” value [1] was 1.

With SNRNP70: host protein, UniProt P08621 the “target (unweighted spectral count, OC43 Probe II)” value (HCoV-OC43 gRNA and sgRNA; [4]) was 8, the “background (unweighted spectral count, no-probe control)” value (HCoV-OC43 gRNA and sgRNA; [5]) was 2 and the “target (spectral count)” value (gRNA of HCoV-OC43) was 9. For the same substance, the “background (spectral count)” value (gRNA of HCoV-OC43) was 1.

With SQSTM1: host protein, UniProt Q13501 the “target (unweighted spectral count in RNP capture)” value [1] was 19, the “background (unweighted spectral count in control)” value [1] was 1 and the “target (spectral count)” value (gRNA of HCoV-OC43) was 7. For the same substance, the “background (spectral count)” value (gRNA of HCoV-OC43) was 1.

For SRSF1, the “background (unweighted spectral count, no-probe control)” value (HCoV-OC43 gRNA and sgRNA) was 1, the “target (unweighted spectral count, OC43 Probe II capture)” value (HCoV-OC43 gRNA and sgRNA) was 14 and the “target (unweighted spectral count, OC43 Probe II)” value (HCoV-OC43 gRNA and sgRNA) was 20. For the same substance, the “target (unweighted spectral count in RNP capture)” value [1] was 8, the “background (unweighted spectral count in control)” value [1] was 1 and the “background (spectral count, no-probe control)” value (gRNA of HCoV-OC43) was 1. For the same substance, the “target (spectral count, OC43 Probe I RNP capture)” value (gRNA of HCoV-OC43) was 17.

SSRP1 was tested, and the “target (unweighted spectral count, OC43 Probe II capture)” value (HCoV-OC43 gRNA and sgRNA; [7]) was 4.

SUPT16H was tested, and the “target (unweighted spectral count)” value (HCoV-OC43 gRNA and sgRNA; [6]) was 4.

TCP1 was tested, and the “target (unweighted spectral count, OC43 Probe II capture)” value (HCoV-OC43 gRNA and sgRNA; [3]) was 4.

With TUBB4B the “target (unweighted spectral count of the protein in the RNP capture experiment)” value [1] was 6 and the “back-ground” value [1] was 1.

USP10 was tested, and the “target (unweighted spectral count, OC43 Probe II capture)” value (HCoV-OC43 gRNA and sgRNA; [7]) was 5, the “target (unweighted spectral count, OC43 Probe II capture)” value (HCoV-OC43 gRNA and sgRNA; [3]) was 4 and the “target (unweighted spectral count, OC43 Probe II)” value (HCoV-OC43 gRNA and sgRNA; [4]) was 7. The “background (unweighted spectral count, no-probe control)” value (HCoV-OC43 gRNA and sgRNA; [5]) was 1, the “target (spectral count, OC43 Probe I RNP capture)” value (gRNA of HCoV-OC43; [8]) was 6 and the “background (spectral count, no-probe control)” value (gRNA of HCoV-OC43; [9]) was 1.

XRCC5: host protein, UniProt P13010 was tested, and the “target (unweighted spectral count, OC43 Probe II capture)” value (HCoV-OC43 gRNA and sgRNA; [3]) was 7, the “target (unweighted spectral count, OC43 Probe II)” value (HCoV-OC43 gRNA and sgRNA; [4]) was 12 and the “background (unweighted spectral count, no-probe control)” value (HCoV-OC43 gRNA and sgRNA; [5]) was 1. For the same substance, the “target (spectral count)” value (HCoV-OC43 gRNA and sgRNA; 36 hpi) was 7, the “background (spectral count)” value (HCoV-OC43 gRNA and sgRNA; 36 hpi) was 1 and the “target (spectral count)” value (gRNA of HCoV-OC43) was 8. The “background (spectral count)” value (gRNA of HCoV-OC43) was 1, the “target (spectral count, OC43 Probe I RNP capture)” value (gRNA of HCoV-OC43; [8]) was 10 and the “background (spectral count, no-probe control)” value (gRNA of HCoV-OC43; [9]) was 1.

For YBX2: host protein, UniProt Q9Y2T7, the “target (unweighted spectral count, OC43 Probe II capture)” value (HCoV-OC43 gRNA and sgRNA; [3]) was 9, the “target (unweighted spectral count, OC43 Probe II)” value (HCoV-OC43 gRNA and sgRNA; [4]) was 8 and the “background (unweighted spectral count, no-probe control)” value (HCoV-OC43 gRNA and sgRNA; [5]) was 1. The “target (spectral count)” value (HCoV-OC43 gRNA and sgRNA; 36 hpi) was 9 and the “background (spectral count)” value (HCoV-OC43 gRNA and sgRNA; 36 hpi) was 1.

With YP_009725304.1 the “target (unweighted spectral count in RNP capture)” value (SARS-CoV-2 gRNA; Probe I capture, […], LC-MS/MS LFQ) was 5 and the “background (unweighted spectral count in control)” value (SARS-CoV-2 gRNA; no-probe control pull-down, used as background for Probe I) was 1.

For ZC3H7B, the “target (unweighted spectral count)” value (HCoV-OC43 gRNA and sgRNA; [2]) was 6.

With ZFR the “target (unweighted spectral count, OC43 Probe II capture)” value (HCoV-OC43 gRNA and sgRNA; [7]) was 4, the “target (unweighted spectral count, OC43 Probe II)” value (HCoV-OC43 gRNA and sgRNA; [4]) was 6 and the “background (unweighted spectral count, no-probe control)” value (HCoV-OC43 gRNA and sgRNA; [5]) was 1.
